Data as given in patent US8057659B2, “Detection of analytes in a dual-mediator electrochemical test strip” (AgaMatrix, Inc., priority 2006, dated 2011).

How the values were obtained:
[1] = Redox potential of the mediator; type: physicochemical
Excerpt: Another specific mediator is [Os(Mebpy)2Pic]^+/2+.

GOX = GOX (Aspergillus niger, UniProt P13006); settings: 3+ form of mediator
Sequence of GOX (P13006 17-605, species assumed): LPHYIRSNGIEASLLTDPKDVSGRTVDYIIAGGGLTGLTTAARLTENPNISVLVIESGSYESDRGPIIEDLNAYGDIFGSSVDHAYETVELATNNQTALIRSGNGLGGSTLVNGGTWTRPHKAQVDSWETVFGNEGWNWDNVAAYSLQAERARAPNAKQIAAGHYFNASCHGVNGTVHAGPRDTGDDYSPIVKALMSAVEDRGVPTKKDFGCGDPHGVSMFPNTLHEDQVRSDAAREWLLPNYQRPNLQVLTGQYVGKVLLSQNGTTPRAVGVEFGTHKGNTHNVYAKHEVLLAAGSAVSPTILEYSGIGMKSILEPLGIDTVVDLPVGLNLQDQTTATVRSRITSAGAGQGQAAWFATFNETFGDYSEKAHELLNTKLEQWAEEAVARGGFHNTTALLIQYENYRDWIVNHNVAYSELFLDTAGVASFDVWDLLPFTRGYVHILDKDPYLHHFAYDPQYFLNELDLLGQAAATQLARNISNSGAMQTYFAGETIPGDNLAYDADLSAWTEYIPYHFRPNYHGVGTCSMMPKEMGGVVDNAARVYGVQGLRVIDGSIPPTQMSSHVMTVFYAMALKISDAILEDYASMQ

Substance: [Os(MeBpy)2(Im)2]^2+/3+
- redox potential E^o [1]: 140-154 mV
- second order rate constant of electron transfer from GOX to the 3+ mediator (GOX): approximately 4.0×10^5 M^−1s^−1
